# Measurements taken from US6239125A, “Azetidinone derivatives for the treatment of HCMV infections” (Boehringer Ingelheim (Canada) Ltd., priority 1998, dated 2001).
# Structures can show the parent of a compound that is named as a salt. Where two headings read alike, the source gives them in different places. Non-standard residues stand in square brackets, D forms with d. Residues, ends and D or L forms follow the SMILES beside them. Tyr(3-NO2) = N[C@@H](Cc1ccc(O)c([N+](=O)[O-])c1)C(=O)O; 2Abz = Nc1ccccc1C(=O)O
# How the values were obtained:
# HCMV No protease [1] = biological target: T1, HCMV No protease (Human cytomegalovirus, UniProt P16753); experiment: HCMV No Protease Assay (fluorogenic substrate, IC50); assay type: biochemical; conditions: fluorogenic substrate cleaved by HCMV No protease
# T1 sequence (P16753 1-256): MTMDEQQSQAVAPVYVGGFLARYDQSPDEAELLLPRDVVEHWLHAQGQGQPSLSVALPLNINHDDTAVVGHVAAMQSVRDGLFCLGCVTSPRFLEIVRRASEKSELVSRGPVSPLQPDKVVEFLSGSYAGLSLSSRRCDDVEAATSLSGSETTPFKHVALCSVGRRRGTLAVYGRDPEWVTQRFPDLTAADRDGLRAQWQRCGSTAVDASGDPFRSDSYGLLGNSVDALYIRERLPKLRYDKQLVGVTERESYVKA
# [2] = tested on: HCMV (strain AD169, ATCC VR-538); experiment: Plaque Reduction Assay (PRA), HCMV-infected Hs-68 cells; assay type: cell-based, human cytomegalovirus (HCMV)
# Experimental: B. Plaque Reduction Assay (PRA): Hs-68 cells (ATCC # CRL 1635) were seeded in 12-well plates at 83,000 cells/well in 1 mL of DMEM medium (Gibco Canada Inc.) supplemented with 10% fetal bovine serum (FBS, Gibco Canada Inc.). The plates were incubated for 3 days at 37° to allow the cells to reach 80-90% confluency prior to the assay.
# The medium was removed from the cells by aspiration. The cells were then infected with approximately 50 PFU of HCMV (strain AD169, ATCC VR-538) in DMEM medium supplemented with 5% inactivated FBS (assay medium). (DMEM medium is commercially available and has been described by R. Dulbecco et al., Virology 1959, 8, 396.) The virus was allowed to adsorb to cells for 2 h at 37°. Following viral adsorption, the medium was removed from the wells by aspiration. The cells were then incubated with or without 1 mL of appropriate concentrations of test reagent in assay medium. Occasionally, test compounds were added 24 h post-infection. After 4 days of incubation at 37°, the medium was exchanged with fresh medium containing test compound and 4 days later the cells were fixed with 1% aqueous formaldehyde and stained with a 2% violet solution in 20% ethanol in water. Microscopic plaques were counted using a stereomicroscope. Drug effects were calculated as a percent reduction in the number of plaques in the presence of each drug concentration compared to the number observed in the absence of drug. Ganciclovir was used as a positive control in all experiments.
# HCMV No protease [3] = biological target: T1, HCMV No protease; experiment: HCMV No Protease Assay (fluorogenic substrate, IC50); assay type: biochemical; conditions: HCMV No protease 100 nM, substrate 5 μM, 2.5 h at 30°, pH 8; Table 1 and Table 2
# Experimental: This particular assay determines the ability of a test compound to inhibit the activity (IC50) of HCMV protease. More specifically, in the assay described herein, the inhibitory activity of the test compound is evaluated on the basis of its ability to interfere with the HCMV No protease cleavage of a fluorogenic peptide substrate which in turn is based on the maturation cleavage site of the enzyme.
# 1. HCMV No Protease Assay
# Material & Methods: Fluorescence measurements were recorded on a Perkin-Elmer LS-50B spectrofluorimeter equipped with a plate reader accessory. UV measurements were recorded on a Thermomax® microplate reader from Molecular Devices Corporation, Menlo Park, Calif., USA.
# The fluorescence increase upon cleavage of the Ala-Ser amide bond was monitored using excitation λ=312 nm (slit 2.5 nm) and emission λ=415 nm ([…]). A protocol adaptable to a 96-well plate format was designed for the determination of IC50 values of inhibitors.
# No quenching was required before fluorescence measurement since the total scanning time by the plate reader accessory was brief relative to the duration of the reaction. The aqueous incubation buffer contained 50 mM tris(hydroxymethyl)aminomethane-HCl pH 8, 0.5M Na2 SO4, 50 mM NaCl, 0.1 mM EDTA, 1 mM tris(2-carboxyethyl)phosphine.HCl, 3% v/v DMSO and 0.05% w/v casein. The final concentrations of HCMV No protease (expressed in terms of total monomer concentration) and substrate were 100 nM and 5 μM respectively. IC50 values were obtained through fitting of the inhibition curve to a competitive inhibition model using SAS NLIN procedure. The mode of inhibition was determined by measurements of the initial rates (in cuvettes) at various substrate concentrations in the buffer as described above.
# [4] = Cytotoxic effects, tetrazolium salt (MTT) metabolic assay; assay type: cell-based; conditions: cytotoxicity, Table 1 and Table 2, read-out: TC50 (the source's name)
# Experimental: Cytotoxic effects noted as TC50 in the following tables were determined according to the tetrazolium salt (MTT) metabolic assay, F. Denizot and F. Lang, J. Immun. Meth., 1986, 89, 271.
# [5] = Human betaherpesvirus 5, Hs68, plaque reduction, Hs-68 cells, HCMV strain AD169, Table 1 and Table 2, read-out: EC50
Compound,Kcat /KM (HCMV No protease [1]) [M⁻¹ s⁻¹],"EC50 [2, 5] [µM]",IC50 (HCMV No protease [3]) [µM],CC50 [4] [µM],"EC50 ([2]; Human betaherpesvirus 5, AD169, Hs68) [µM]"
CC(C)C[C@H](NC(=O)[C@H](CCCNC(=N)N)NC(=O)[C@H](CO)NC(=O)[C@H](CO)NC(=O)[C@H](C)NC(=O)[C@H](CC(N)=O)NC(=O)[C@@H](NC(=O)[C@@H](NC(=O)c1ccccc1N)C(C)C)C(C)C)C(=O)N[C@@H](Cc1ccc(O)c([N+](=O)[O-])c1)C(=O)N[C@@H](CCCNC(=N)N)C(=O)O (H-[2Abz]VVNASSRL[Tyr(3-NO2)]R-OH),260,,,,
CC(C)C[C@@H](CS[C@H]1CC(=O)N1C(=O)NCc1ccccc1)NC(=O)[C@@H](NC(=O)OC(C)(C)C)C(C)(C)C [Entry 101],,> 11,0.4,> 11,
C[C@@H](NC(=O)N1C(=O)C[C@@H]1Sc1ccccc1)c1ccccc1 [Entry 102],,40,,> 100,
C[C@@H](NC(=O)N1C(=O)C[C@@H]1SCc1ccccc1)c1ccccc1 [Entry 103],,> 5,12.4,> 5,
C[C@@H](NC(=O)N1C(=O)C[C@@H]1SCCc1ccccc1)c1ccccc1 [Entry 104],,> 4,6.5,> 4,
C[C@@H](NC(=O)N1C(=O)C[C@@H]1SC[C@H](CCS(C)(=O)=O)NC(=O)[C@@H](NC(=O)OC(C)(C)C)C(C)(C)C)c1ccccc1 [Entry 105],,110,0.2,> 250,
C[C@@H](NC(=O)N1C(=O)C[C@H]1SC[C@H](CCS(C)(=O)=O)NC(=O)[C@@H](NC(=O)OC(C)(C)C)C(C)(C)C)c1ccccc1 [Entry 106],,230,0.62,> 250,
C[C@@H](NC(=O)N1C(=O)C[C@H]1[S+]([O-])c1ccccc1)c1ccccc1 (stereo partly drawn) [Entry 107],,,9,,
C[C@@H](NC(=O)N1C(=O)C[C@@H]1[S+]([O-])c1ccccc1)c1ccccc1 (stereo partly drawn) [Entry 108],,,4,,
C[C@@H](NC(=O)N1C(=O)C[C@@H]1SCc1ccncc1)c1ccccc1 [Entry 109],,65,2.1,> 250,
C[C@@H](NC(=O)N1C(=O)C[C@@H]1SCc1cccnc1)c1ccccc1 [Entry 110],,96,2,> 200,
C[C@@H](NC(=O)N1C(=O)C[C@@H]1SCc1ccccn1)c1ccccc1 [Entry 111],,60,2.5,180,
C[C@@H](NC(=O)N1C(=O)C[C@@H]1SCC(=O)c1ccccc1)c1ccccc1 [Entry 112],,> 37,1,> 37,
"CC[C@@H](NC(=O)N1C(=O)C[C@@H]1SCc1ccccn1)c1ccccc1 [Entry 114, 4(S)-{(2-pyridinylmethyl)thio}azetidin-2-one-1-carboxylic acid (1(R)-phenylpropyl)amide hydrochloride]",,80,1.2,> 200,
CC[C@@H](NC(=O)N1C(=O)C[C@@H]1SC[C@H](CC(C)C)NC(=O)[C@@H](NC(=O)CC(C)(C)C)C(C)(C)C)c1ccccc1 [Entry 115],,> 250,< 0.06,> 250,
O=C1C[C@H](SCc2ccccn2)N1C(=O)N[C@H](CO)c1ccccc1 [Entry 116],,,3.6,,
CC(C)C[C@@H](CO[C@@H]1CC(=O)N1C(=O)NCc1ccccc1)NC(=O)OC(C)(C)C [Entry 201],,,44,,
CC(C)C[C@@H](CO[C@@H]1CC(=O)N1C(=O)NCc1ccccc1)NC(=O)[C@@H](NC(=O)OC(C)(C)C)C(C)(C)C [Entry 202],,,1.3,> 52,64
CC(C)C[C@@H](CO[C@H]1CC(=O)N1C(=O)N[C@H](C)c1ccccc1)NC(=O)[C@@H](NC(=O)OC(C)(C)C)C(C)(C)C [Entry 203],,> 49,0.32,> 49,
CC(C)C[C@@H](CO[C@@H]1CC(=O)N1C(=O)NCc1ccccc1)NC(=O)[C@@H](NC(=O)CC(C)(C)C)C(C)(C)C [Entry 204],,,0.16,,
CN(C(=O)CC(CO[C@@H]1CC(=O)N1C(=O)NCc1ccccc1)NC(=O)CC(C)(C)C)C(C)(C)C (stereo partly drawn) [Entry 205],,> 250,5,> 250,
C[C@@H](NC(=O)N1C(=O)C[C@H]1Oc1ccc(Cl)cc1)c1ccccc1 [Entry 206],,,1.6,,
C[C@@H](NC(=O)N1C(=O)C[C@@H]1Oc1ccc(Cl)cc1)c1ccccc1 [Entry 207],,250,0.8,> 250,
C[C@@H](NC(=O)N1C(=O)C[C@@H]1OCCNC(=O)c1ccc(NC(=O)CC(C)(C)C)cc1)c1ccccc1 [Entry 208],,,21,,
COC(=O)[C@@H](C)O[C@@H]1CC(=O)N1C(=O)N[C@H](C)c1ccccc1 [Entry 209],,,21.5,,
COC(=O)[C@H](C)O[C@H]1CC(=O)N1C(=O)N[C@H](C)c1ccccc1 [Entry 210],,,3.8,,
